Measured values as given in PubChem BioAssay AID1996.
≈ marks a conversion by molar mass, not a printed value.

Settings: buffer; pH 7.4; 200.0 µM

SMILES | solubility kinetic
CC(C)CC(=O)c1c[nH]c(C(=O)NCc2cccnc2)c1 | 0.0309 mg/mL (≈ 108 µM)
Cl.NC(Cc1ccccc1)Cc1ccccc1 | > 0.0372 mg/mL
CN1CCN(S(=O)(=O)c2ccc(NC(=O)c3cccc(F)c3)cc2)CC1 | > 0.0566 mg/mL
O=C1Cc2cc(NS(=O)(=O)c3ccc(Cl)cc3)cc3c2N1CCC3 | 0.0429 mg/mL (≈ 118 µM)
Cc1ccc(CNC(=O)COC(=O)COc2ccc(C#N)cc2)cc1 | > 0.0508 mg/mL
c1ccc(CNc2nc(-c3cccnc3)nc3ccccc23)cc1 | 0.0136 mg/mL (≈ 43.5 µM)
CCCCc1c(O)nc(SCC(=O)N2CCCCC2)[nH]c1=O | > 0.0488 mg/mL
CCCc1ccc(C(=O)/C=C/N(C)C)cc1 | 0.0269 mg/mL (≈ 124 µM)
Cc1ccc(S(=O)(=O)[O-])cc1.Cn1cc[n+](C)c1COc1ccc(C=O)cc1 | > 0.0604 mg/mL
O=C(CCc1nc2ccccc2s1)Nc1cccnc1 | 0.0326 mg/mL (≈ 115 µM)
Cc1nc([N+](=O)[O-])c(C(=O)O)n1C | > 0.0278 mg/mL
Brc1cccc(C=Nc2cccc3ncccc23)c1 | 0.0122 mg/mL (≈ 39.2 µM)
CCN(Cc1ccc(Cl)s1)C(=O)c1cccc(OCc2c(C)noc2C)c1 | 0.0164 mg/mL (≈ 40.5 µM)
Cc1cccc(C(=O)OCC(=O)NC2CC2)c1O | > 0.0374 mg/mL
S=C(NCCNC(=S)Nc1ccccc1)Nc1ccccc1 | 0.0094 mg/mL (≈ 28.4 µM)
CCc1c(C)nc(N)nc1Cl | 0.0241 mg/mL (≈ 140 µM)
Cn1c(=O)c2c(nc(SCCN3CCOCC3)n2C)n(C)c1=O | > 0.0509 mg/mL
CC1CCCC(NC(=O)CCC(=O)c2ccc(F)cc2)C1C (centres undefined) | 0.0338 mg/mL (≈ 111 µM)
Cc1ccccc1C(=O)NCCN1CCOCC1.Cl | > 0.0427 mg/mL
O=C(OCC(=O)c1ccc[nH]1)c1ccc([N+](=O)[O-])cc1 | 0.0133 mg/mL (≈ 48.5 µM)
CO/N=C/C(c1ccc(Cl)nc1)S(=O)(=O)c1ccccc1 (centres undefined) | > 0.0487 mg/mL
CC(C)CC(OC(=O)c1ccco1)C(=O)NC1CCCC1 (centres undefined) | 0.0411 mg/mL (≈ 140 µM)
COc1ccccc1C(=O)OCC(=O)Nc1ccc(Cl)cn1 | 0.0051 mg/mL (≈ 15.9 µM)
CN(C)CCCNc1oc(-c2ccc(Cl)cc2)nc1S(=O)(=O)c1ccccc1 | > 0.063 mg/mL

SMILES | solubility kinetic
O=[N+]([O-])c1ccc(N2CCNCC2)cc1N1CCCCC1 | > 0.0436 mg/mL
CCN(CC(=O)Nc1cccc(OC)c1)C(=O)c1ccncc1 | 0.0372 mg/mL (≈ 119 µM)
Cc1ccc2c(c1)N(Cc1cccc(C#N)c1)C=NS2(=O)=O | 0.0081 mg/mL (≈ 26 µM)
COCCCN1CN(Cc2ccco2)CNC1=S | > 0.0404 mg/mL
NC(=O)c1ccc(Oc2ccc(Cl)cc2)c([N+](=O)[O-])c1 | 0.002 mg/mL (≈ 6.83 µM)
N#C/C(=C(/O)c1ccc(Cl)cc1)c1nc2ccccc2[nH]1 | < 0.0002 mg/mL
COc1cccc(CNc2ncc(-c3ccccc3)n2C)c1 | 0.0329 mg/mL (≈ 112 µM)
CC(C)(C)n1cnc2cc(NCc3ccccc3O)ccc21 | 0.0345 mg/mL (≈ 117 µM)
CN(C)C(=O)CSc1nc2cc(S(=O)(=O)N3CCOCC3)ccc2o1 | > 0.0578 mg/mL
O=C(COC(=O)Cc1ccc(Br)cc1)Nc1ccc(Cl)cn1 | 0.0039 mg/mL (≈ 10.2 µM)
O=C(Nc1ccccc1)Nc1cnccn1 | 0.0162 mg/mL (≈ 75.6 µM)
CCOC(=O)c1nc(NCc2ccccc2)sc1C | 0.0095 mg/mL (≈ 34.4 µM)
Cc1nc2ccccn2c1C(=O)NN=C1CCN(C)CC1 | > 0.0428 mg/mL
Cc1cccc(C(=O)OCC(=O)NCC(C)C)c1O | 0.0136 mg/mL (≈ 51.3 µM)
COc1ccc(NC(=S)NCc2ccc(F)cc2)c(OC)c1 | > 0.0481 mg/mL
N#Cc1ccc(Cn2c(-c3ccc(F)cc3)noc2=O)cc1 | 0.0376 mg/mL (≈ 127 µM)
COc1cnc(-c2cccc(C(F)(F)F)c2)nc1OC | < 0.0003 mg/mL
COc1ccc(CCC2CCNCC2)cc1.Cl | > 0.0384 mg/mL
COc1ccc(NC(=O)/C=C/c2cc(OC)c(OC)c(OC)c2)cn1 | 0.0005 mg/mL (≈ 1.45 µM)
COCCNC(=O)CN1CCCCCC1.Cl | 0.0348 mg/mL
COc1ccc(CC(=O)NC(C)CCc2ccccc2)cc1OC (centres undefined) | > 0.0491 mg/mL
Cc1ccc(NC(=O)CN2CCCC2)cc1.Cl | > 0.0382 mg/mL
Cc1ccc(C)c(N(CC(=O)N2CCCCCC2)S(C)(=O)=O)c1 | 0.0469 mg/mL (≈ 139 µM)
Cc1ccccc1C(=O)NCCCNC(=O)c1ccccn1 | > 0.0446 mg/mL

SMILES | solubility kinetic
CCCNC(=O)CN(C)CC(=O)Nc1ccccc1C#N | > 0.0433 mg/mL
Cc1ccc(C(=O)Nc2ccc(NC(=O)c3ccc(C)o3)cc2)o1 | 0.0017 mg/mL (≈ 5.24 µM)
O=C(NCc1ccccn1)Nc1ccc(Cl)cc1 | 0.034 mg/mL (≈ 130 µM)
COc1ccc(/C=C/C(=O)O/N=C(\N)c2ccccn2)cc1OC | 0.0078 mg/mL (≈ 23.8 µM)
COc1ccc(-n2c(=S)[nH]c3sc4c(c3c2=O)CCN(C)C4)cc1 | > 0.0539 mg/mL
COc1ccc(NC(=O)CCC(=O)c2ccc(C(C)C)cc2)cc1 | < 0.0007 mg/mL
Cc1cc(C)nc(N2CCC(C(=O)NCc3ccccc3F)CC2)n1 | 0.0003 mg/mL (≈ 0.876 µM)
Cc1cc(C)c(S(=O)(=O)N2CCN(C(=O)N(C)C)CC2)c(C)c1 | > 0.0509 mg/mL
Cc1ccc2c(c1)cc(C(=O)N1CCN(c3ccccn3)CC1)n2C | 0.0021 mg/mL (≈ 6.28 µM)
CS(=O)(=O)N(CC(=O)NCCSC1CCCCC1)c1ccccc1 | 0.0405 mg/mL (≈ 109 µM)
O=C(Nc1ccc(Cl)cc1F)C1CC1c1ccccc1 (centres undefined) | 0.0014 mg/mL (≈ 4.83 µM)
Cc1ccc(S(=O)(=O)N2CCOCC2)cc1NC(=O)COC(=O)/C=C/c1ccc(F)cc1 | 0.0103 mg/mL (≈ 22.3 µM)
COC(=O)c1ccc2nc(-c3cccc(N)c3)cn2c1 | 0.0335 mg/mL (≈ 125 µM)
O=C(CN1C(=O)NC2(CCCC2)C1=O)NCc1cccc(Cl)c1 | 0.0424 mg/mL (≈ 126 µM)
CC(C)(CNC(=O)CCC1CCCC1)CNC(=O)CCC1CCCC1 | 0.0271 mg/mL (≈ 77.3 µM)
O=C(Nc1ccc2c(c1)OCO2)c1ccccn1 | 0.0314 mg/mL (≈ 130 µM)
CC(=O)c1cnc(Oc2cc(Cl)ccc2Cl)nc1C | 0.0424 mg/mL (≈ 143 µM)
CC(C)C(=O)Nc1ccc(NC(=O)CCc2ccccc2)cn1 | > 0.0467 mg/mL
Cc1ccc(C)c(OCCCCN2CCCCC2)c1.O=C(O)C(=O)O | 0.0475 mg/mL
Cn1c(=O)n(CCOc2ccc([N+](=O)[O-])cc2)c2ccccc21 | 0.0011 mg/mL (≈ 3.51 µM)
COC(=O)c1c(C)[nH]c(C(=O)C(C)OC(=O)c2cnc(C)cn2)c1C (centres undefined) | 0.0492 mg/mL (≈ 142 µM)
Cc1cc(C)cc(N2CC(O)Cn3c2nc2c3c(=O)[nH]c(=O)n2C)c1 (centres undefined) | 0.0343 mg/mL (≈ 100 µM)
Cc1ccc(Cl)cc1NC(=O)C1CC1c1ccccc1 (centres undefined) | < 0.0006 mg/mL
Cc1ccc(OCC(=O)NCCc2c[nH]c3ccccc23)cc1 | 0.0049 mg/mL (≈ 15.9 µM)

SMILES | solubility kinetic
COc1c(C)cc(Br)cc1C(=O)Nc1ccccc1C | < 0.0007 mg/mL
COc1ccc(O)c(CN2CCN(CCc3ccccc3)C(CCO)C2)c1 (centres undefined) | 0.054 mg/mL (≈ 146 µM)
CC(=O)c1cc(Cl)ccc1OCC(=O)NC1CCCC1 | > 0.0444 mg/mL
COc1ccc(C)cc1N(CC(=O)N1CCCCCC1)S(C)(=O)=O | 0.0381 mg/mL (≈ 107 µM)
Cc1nc(CSc2ccc(Cl)cc2)cs1 | 0.0069 mg/mL (≈ 27 µM)
CN(C)C(=O)c1cc(C(=O)c2ccc(F)cc2C(F)(F)F)c[nH]1 | 0.0126 mg/mL (≈ 38.4 µM)
Cc1cc(-c2ccccc2C(=O)Nc2ccccc2O)on1 | > 0.0441 mg/mL
CN(C)CCCNc1nc(N)c([N+](=O)[O-])c(NCCO)n1 | 0.039 mg/mL (≈ 130 µM)
CCN(CC)S(=O)(=O)c1ccc(NC(=S)NC(=O)C2CCC2)cc1 | 0.0187 mg/mL (≈ 50.6 µM)
COc1ccc(NC(C)=O)cc1NC(=O)c1ccc(C#N)cc1 | > 0.0464 mg/mL
CC(NC(=O)CCC(=O)c1ccccc1)c1ccc(F)cc1 (centres undefined) | > 0.0449 mg/mL
COc1ccc(CC(=O)NCCc2cnc[nH]2)cc1 | > 0.0389 mg/mL
O=C1CCCC(=O)C1C1c2ccccc2CCN1C(=O)CCl (centres undefined) | > 0.048 mg/mL
O=C1c2ccccc2C(=O)C1c1ccccn1 | 0.0142 mg/mL (≈ 63.6 µM)
CCOC(=O)CNC(=O)CSc1nc(-c2ccccc2)ns1 | > 0.0506 mg/mL
CCC1CCCCN1C(=O)c1cc(S(=O)(=O)N2CCOCC2)ccc1C (centres undefined) | > 0.0571 mg/mL
CCOC(=O)c1ccc(NC(C)=O)c([N+](=O)[O-])c1 | > 0.0378 mg/mL
Cc1cc(SCC(=O)Nc2ccc3[nH]c(=O)[nH]c3c2)nc2ccccc12 | 0.0029 mg/mL (≈ 7.96 µM)
CC(=O)CSc1ccc(-c2nc3cc(C)c(C)cc3[nH]2)cn1 | 0.0039 mg/mL (≈ 12.5 µM)
CC(Nc1nc(-c2ccccc2F)nc2ccccc12)c1ccccc1 (centres undefined) | 0.0032 mg/mL (≈ 9.32 µM)
CC(Sc1ncccn1)C(=O)NNC(=O)c1cccc(Cl)c1 (centres undefined) | > 0.0505 mg/mL
O=c1c2c3c(sc2[nH]c(=S)n1Cc1ccco1)CCC3 | 0.0346 mg/mL (≈ 114 µM)
COC(=O)Nc1ccc(SCC(=O)c2ccccc2)cc1 | 0.0034 mg/mL (≈ 11.3 µM)
O=C(O)CNC1c2ccccc2CSc2ccccc21 (centres undefined) | > 0.0428 mg/mL

SMILES | solubility kinetic
Cc1c(NCc2ccccc2O)c(=O)n(-c2ccccc2)n1C | > 0.0464 mg/mL
O=C(/C=C/c1ccc(-c2cccc([N+](=O)[O-])c2)o1)N1CCOCC1 | 0.0039 mg/mL (≈ 11.9 µM)
CN(C)CCCNc1nc(-c2ccccc2)nc2ccccc12.Cl | 0.0441 mg/mL
CN(CC(=O)Nc1cccc(F)c1)C(=O)c1cccc2ccccc12 | > 0.0505 mg/mL
Cc1cc(C)nc(SCc2ccc([N+](=O)[O-])cc2)n1 | 0.0061 mg/mL (≈ 22.2 µM)
Cc1ccc2c(c1)c1c(n2CC(O)CN2CCCCC2C)CCCC1 (centres undefined) | 0.0298 mg/mL (≈ 87.5 µM)
Cc1ccc(S(=O)(=O)NCc2ccccc2)s1 | > 0.0401 mg/mL
CC(C)CCN1CCN(Cc2ccoc2)CC1CCO (centres undefined) | 0.0296 mg/mL (≈ 106 µM)
Cc1cccc(C(C)C)c1NC(=O)CSc1cccc[n+]1[O-] | > 0.0475 mg/mL
S=C(NCc1ccco1)Nc1cccc(Cl)c1Cl | 0.0113 mg/mL (≈ 37.5 µM)
O=C(Nc1ccc(NC(=O)c2ccco2)cc1)c1ccco1 | 0.0025 mg/mL (≈ 8.44 µM)
O=C(Nc1nc2ccccc2[nH]1)c1cccc(Cl)c1 | < 0.0002 mg/mL
Cc1cccc(-c2noc(C(C)NC(=O)c3ccco3)n2)c1 (centres undefined) | 0.0329 mg/mL (≈ 111 µM)
Cc1occc1C(=O)O/N=C(\N)c1ccc(Cl)cc1 | 0.0091 mg/mL (≈ 32.7 µM)
COc1ccc(NC(=O)COC(=O)C2CCN(C(=O)c3ccc(Cl)cc3)CC2)c([N+](=O)[O-])c1 | 0.0224 mg/mL (≈ 47.1 µM)
CCC(=O)c1cn(CC(=O)Nc2cc(C)ccc2C)c2ccccc12 | < 0.0004 mg/mL
COc1cccc(NC(=O)N2CCCC2C(=O)NC2CCCC2)c1 (centres undefined) | 0.0459 mg/mL (≈ 138 µM)
Cc1cccc(OCCCn2c(=O)oc3ccccc32)c1 | 0.0046 mg/mL (≈ 16.2 µM)
COc1ccccc1CNS(=O)(=O)c1ccc(Br)s1 | 0.0324 mg/mL (≈ 89.4 µM)
O=C1NC(=O)N(Cc2ccccc2)C(=O)/C1=C/C=C/c1ccco1 | 0.0088 mg/mL (≈ 27.3 µM)
Nc1ccc(C(=O)OCC(=O)Nc2cccc(S(=O)(=O)NC3=NCCCCC3)c2)cc1[N+](=O)[O-] | 0.0047 mg/mL (≈ 9.6 µM)
O=C(O)c1ccccc1-n1cccc1C(=O)O | > 0.0347 mg/mL
C=CCOc1ccc(/C=C2\SC(=S)N(CCC(=O)O)C2=O)cc1 | 0.048 mg/mL (≈ 137 µM)
